From patent publication US20210087191A1, “SUBSTITUTED 3-ISOBUTYL-9,10-DIMETHOXY-1,3,4,6,7,11B-HEXAHYDRO-2H-PYRIDO[2,1-a]ISOQUINOLIN-2-OL COMPOUNDS, THEIR [sequence], AND USE THEREOF” (DISPERSOL TECHNOLOGIES, LLC, priority 2020, published 2021)
Converted amounts (≈) assume the structure as drawn. Read-outs that look alike come from different tables or passages of the source.

What was measured:
[1] = compared to the other three isomers; cited from earlier work
[2] = cited from earlier work
[3] = in vivo; cited from earlier work
[4] = Permeability in Caco-2 cell monolayer; format: in vitro ADME; settings: human; for efflux ratio: Caco-2; for Papp A→B: Caco-2, apical to basolateral; for Papp B→A: Caco-2, basolateral to apical
Method: The intestinal permeability of compound(s) was evaluated in Caco-2 cells by assessing transport across the cell monolayer in the apical to basolateral (A-B) direction. Active efflux was also assessed by measuring transport in the basolateral to apical (BA) direction which enables evaluation of the efflux ratio. Analysis of transport is quantified by tandem mass spectrometry (LC-MS/MS).

[5] = Stability in human plasma (PS), LC-MS/MS; format: in vitro ADME; settings: for half-life: read-out: Human PS t1/2
Method: (§1) Metabolism of compound(s) to release (+)-α-DTHBZ was determined by the half-life (t1/2) and intrinsic clearance (CIint) in human plasma (PS) and liver microsomes (LM) using tandem mass spectrometry (LC-MS/MS).

[6] = test system: human cryopreserved hepatocytes; assay: Heps. stability assay, human cryopreserved hepatocytes; format: in vitro ADME
Method: (§2) Metabolism of compound(s) to release (+)-α-DTHBZ was determined by the half-life (t1/2) and intrinsic clearance (CIint) in human cryopreserved hepatocytes using tandem mass spectrometry (LC-MS/MS).

[7] = LM stability assay, human (second table); format: in vitro ADME; settings: human liver microsomes, Table 2; for microsomal CLint: read-out: LM stability assay Human Clint (μL/min/mg protein); for half-life: read-out: LM stability assay Human t1/2
Method: Metabolism of compound(s) to release (+)-α-DTHBZ was determined by the half-life (t1/2) and intrinsic clearance (CIint) in human liver microsomes (LM) using tandem mass spectrometry (LC-MS/MS).

[8] = Kinetic solubility in PBS buffer; format: physicochemical; settings: aqueous buffer, kinetic from dmso stock, compound suspended at 300 μM, 25° C.
Method: Kinetic solubility was determined by suspending compound at 300 μM at pH 1.2 and 7.4 in PBS buffer. The suspension was equilibrated by shaking at 25° C. at 1100 RPM for 2 hours and then pH was measured following filtration. The filtrate was then diluted by an appropriate factor (e.g. 100-fold). Quantitation was done by LC-MS/MS with reference to a standard solution.

[9] = Metabolic stability in human liver microsomes (LM), LC-MS/MS (first table); format: in vitro ADME; settings: for microsomal CLint: Table 1, read-out: Human LM CLint (μL/min/mg protein); for half-life: Table 1, read-out: Human LM t1/2
Method: as §1

[10] = Heps. stability assay, human cryopreserved hepatocytes; format: in vitro ADME; settings: for microsomal CLint: read-out: Heps. stability assay Human Clint (μL/min/mg protein); for half-life: read-out: Heps. stability assay Human t1/2
Method: as §2

[11] = target: vesicular monoamine transporter-2 (VMAT2) (Homo sapiens, UniProt Q05940); settings: read-out: IC50, inhibition of catecholamine uptake by VMAT2; cited from earlier work
[12] = cited from earlier work; remark: listed apart in the source
[13] = human, oral 25 mg IR formulation; cited from earlier work
[14] = test system: VMAT1, other receptors (e.g., dopamine D2 receptors), transporters, and ion channels; settings: in vitro; cited from earlier work
[15] = pH 1.2, PBS buffer, read-out: Kinetic Solubility pH = 1.2 (300 μM)
[16] = pH 7.4, PBS buffer, read-out: Kinetic Solubility pH = 7.4 (300 μM)

Sequence of vesicular monoamine transporter-2 (VMAT2) (Q05940 whole entry, species assumed): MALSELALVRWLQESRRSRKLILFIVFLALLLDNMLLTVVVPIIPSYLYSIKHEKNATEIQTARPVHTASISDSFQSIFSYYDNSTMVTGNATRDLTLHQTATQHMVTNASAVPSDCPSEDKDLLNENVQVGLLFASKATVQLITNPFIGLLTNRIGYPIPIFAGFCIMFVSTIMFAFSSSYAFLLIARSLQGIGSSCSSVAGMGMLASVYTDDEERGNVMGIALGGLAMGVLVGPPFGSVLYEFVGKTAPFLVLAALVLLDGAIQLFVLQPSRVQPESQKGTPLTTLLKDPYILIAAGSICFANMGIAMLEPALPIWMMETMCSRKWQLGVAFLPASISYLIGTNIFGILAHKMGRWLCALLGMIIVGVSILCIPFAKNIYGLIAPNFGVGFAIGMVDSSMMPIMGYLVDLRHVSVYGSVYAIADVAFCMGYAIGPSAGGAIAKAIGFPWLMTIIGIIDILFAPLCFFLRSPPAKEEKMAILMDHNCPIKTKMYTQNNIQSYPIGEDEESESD

Compound | efflux ratio [4] | Papp A→B [4] | Papp B→A [4] | solubility kinetic at 2 h [8, 15] | solubility kinetic at 2 h [8, 16] | microsomal CLint [9] | half-life [9] | half-life [5] | microsomal CLint [7] | half-life [7] | microsomal CLint [10] | half-life [10] | other results
COc1cc2c(cc1OC)[C@H]1C[C@@H](O)[C@H](CC(C)C)CN1CC2 [(+)-α-DHTBZ, 2R,3R,11bR-dihydrotetrabenazine] |  |  |  |  |  |  |  |  |  |  |  |  | off-target affinity [1]: no off-target affinity; Cmax (time) of (+)-α-DHTBZ formed from Valbenazine ([2]; after Valbenazine, hydrolysis of the valine ester): 4 to 8 h; Tmax of (+)-α-DHTBZ after the administration of Valbenazine ([2]; after administration of Valbenazine): 4 to 8 h
[2H]C([2H])([2H])Oc1cc2c(cc1OC([2H])([2H])[2H])C1CC(=O)C(CC(C)C)CN1CC2 (centres unmarked) [Austedo®] |  |  |  |  |  |  |  |  |  |  |  |  | median Tmax [3]: 3 to 4 h
COc1cc2c(cc1OC)[C@H]1C[C@@H](OC(=O)c3cncc(C(=O)O[C@@H]4C[C@@H]5c6cc(OC)c(OC)cc6CCN5C[C@H]4CC(C)C)c3)[C@H](CC(C)C)CN1CC2 [Example 15, 3,5-bis[(2R,3R,11bR)-9,10-dimethoxy-3-(2-methylpropyl)-1H,2H,3H,4H,6H,7H,11bH-pyrido[2,1-a]isoquinolin-2-yl] pyridine-3,5-dicarboxylate] |  | < 0.01 ×10⁻⁶ cm/s | < 0.01 ×10⁻⁶ cm/s | 317 µM (≈ 244 µg/mL) | 0.06 µM (≈ 0.0462 µg/mL) | < 0.08 µL/min/mg | > 143 h | > 53.7 h |  |  | 16.6 µL/min/mg | 1.39 h | LM stability assay Human t1/2 (min) [7]: ∞
COc1cc2c(cc1OC)C1CC(=O)C(CC(C)C)CN1CC2 (centres unmarked) [TBZ, 3-isobutyl-9,10-dimethoxy-1,3,4,6,7,11b-hexahydro-2H-pyrido[2,1-a]isoquinolin-2-one] |  |  |  |  |  |  |  |  |  |  |  |  | IC50 [11]: 3.2 nM; solubility in acidic environments ([12]; pH<2): 8500 µg/mL (≈ 26.8 mM); solubility in neutral environments ([12]; pH>4): 30 µg/mL (≈ 0.0945 mM); Tmax [3]: 1 h; Mean Tmax [13]: approximately 1 hour; mean t1/2 [13]: approximately 2 hours
COc1cc2c(cc1OC)[C@H]1C[C@@H](OC(=O)[C@@H](N)C(C)C)[C@H](CC(C)C)CN1CC2 [Valbenazine, (2R,3R,11bR)-9,10-dimethoxy-3-(2-methylpropyl)-1,3,4,6,7,11b-hexahydro-2H-benzo[a]quinolizin-2-yl L-valinate] |  |  |  |  |  |  |  |  |  |  |  |  | affinity for VMAT1, other receptors, transporters, and ion channels [14]: little or no affinity; oral bioavailability ([2]; in vivo, po): 49%; Tmax ([2]; in vivo): 0.5 to 1 h; excreted in feces ([2]; in vivo): 30%; excreted in urine ([2]; in vivo): Approximately 60%; parent compound or active metabolite excreted unchanged ([2]; in vivo): Less than 2%; t1/2 ([2]; in vivo): 15 to 22 h

Continued, in another order:

efflux ratio [4] | Papp A→B [4] | Papp B→A [4] | solubility kinetic at 2 h [8, 15] | solubility kinetic at 2 h [8, 16] | microsomal CLint [9] | half-life [9] | half-life [5] | microsomal CLint [7] | half-life [7] | microsomal CLint [10] | half-life [10] | Compound | other results
2.54 | 8.67 ×10⁻⁶ cm/s | 22 ×10⁻⁶ cm/s | 281 µM (≈ 118 µg/mL) | 295 µM (≈ 124 µg/mL) | < 0.79 µL/min/mg | > 14.7 h |  |  |  |  |  | COc1cc2c(cc1OC)[C@H]1C[C@@H](OC(=O)CCC(=O)O)[C@H](CC(C)C)CN1CC2 [Example 2, 4-[[(2R,3R,11bR)-9,10-dimethoxy-3-(2-methylpropyl)-1H,2H,3H,4H,6H,7H,11bH-pyrido[2,1-a]isoquinolin-2-yl]oxy]-4-oxobutanoic acid] | Human PS t1/2 (min) [5]: ∞; Heps. stability assay Human t1/2 (min) [6]: ∞; LM stability assay Human t1/2 (min) [7]: ∞
25.1 | 0.68 ×10⁻⁶ cm/s | 17.1 ×10⁻⁶ cm/s | 276 µM (≈ 130 µg/mL) | 294 µM (≈ 138 µg/mL) | < 0.35 µL/min/mg | > 32.9 h | > 44.7 h | 1.67 µL/min/mg | 13.4 h |  |  | COc1cc2c(cc1OC)[C@H]1C[C@@H](OC(=O)c3cncc(C(=O)O)c3)[C@H](CC(C)C)CN1CC2 [Example 6, 5-([[(2R,3R,11bR)-9,10-dimethoxy-3-(2-methylpropyl)-1H,2H,3H,4H,6H,7H,11bH-pyrido[2,1-a]isoquinolin-2-yl]oxy]carbonyl)pyridine-3-carboxylic acid] | Heps. stability assay Human t1/2 (min) [6]: ∞
85.4 | 0.13 ×10⁻⁶ cm/s | 11.3 ×10⁻⁶ cm/s | 320 µM (≈ 181 µg/mL) | 306 µM (≈ 173 µg/mL) | 1.42 µL/min/mg | 11.5 h | 0.238 h | 2.38 µL/min/mg | 8.91 h | 6.27 µL/min/mg | 3.69 h | COc1cc2c(cc1OC)[C@H]1C[C@@H](OC(=O)/C=C/C(=O)N[C@@H](Cc3ccccc3)C(=O)O)[C@H](CC(C)C)CN1CC2 [Example 12, (2S)-2-[(2E)-4-[[(2R,3R,11bR)-9,10-dimethoxy-3-(2-methylpropyl)-1H,2H,3H,4H,6H,7H,11bH-pyrido[2,1-a]isoquinolin-2-yl]oxy]-4-oxobut-2-enamido]-3-phenylpropanoic acid] | 
> 402 | < 0.01 ×10⁻⁶ cm/s | 4.02 ×10⁻⁶ cm/s | 303 µM (≈ 156 µg/mL) | 300 µM (≈ 155 µg/mL) | 2.17 µL/min/mg | 5.76 h | 2.38 h | 0.35 µL/min/mg | 51.1 h | 4.75 µL/min/mg | 4.89 h | COc1cc2c(cc1OC)[C@H]1C[C@@H](OC(=O)/C=C\C(=O)N[C@H](C(=O)O)C(C)C)[C@H](CC(C)C)CN1CC2 [Example 13, (2S)-2-[(2Z)-4-[[(2R,3R,11bR)-9,10-dimethoxy-3-(2-methylpropyl)-1H,2H,3H,4H,6H,7H,11bH-pyrido[2,1-a]isoquinolin-2-yl]oxy]-4-oxobut-2-enamido]-3-methylbutanoic acid] | 
 | < 0.02 ×10⁻⁶ cm/s | < 0.01 ×10⁻⁶ cm/s | 141 µM (≈ 110 µg/mL) | 0.042 µM (≈ 0.0326 µg/mL) | < 1.25 µL/min/mg | > 9.21 h |  | 150 µL/min/mg | 0.0775 h | 22.6 µL/min/mg | 1.03 h | COc1cc2c(cc1OC)[C@H]1C[C@@H](OC(=O)CCCCCCC(=O)O[C@@H]3C[C@@H]4c5cc(OC)c(OC)cc5CCN4C[C@H]3CC(C)C)[C@H](CC(C)C)CN1CC2 [Example 16, bis[(2R,3R,11bR)-9,10-dimethoxy-3-(2-methylpropyl)-1H,2H,3H,4H,6H,7H,11bH-pyrido[2,1-a]isoquinolin-2-yl] octanedioate] | Human PS t1/2 (min) [5]: ∞
> 1.93 | < 0.02 ×10⁻⁶ cm/s | 0.0333 ×10⁻⁶ cm/s | 308 µM (≈ 222 µg/mL) | 0.0019 µM (≈ 0.00137 µg/mL) | 1.59 µL/min/mg | 7.6 h | 36.9 h | 71.5 µL/min/mg | 0.162 h | 16.9 µL/min/mg | 1.37 h | COc1cc2c(cc1OC)[C@H]1C[C@@H](OC(=O)CCC(=O)O[C@@H]3C[C@@H]4c5cc(OC)c(OC)cc5CCN4C[C@H]3CC(C)C)[C@H](CC(C)C)CN1CC2 [Example 17] | 
0.67 | 14.2 ×10⁻⁶ cm/s | 9.54 ×10⁻⁶ cm/s | 312 µM (≈ 131 µg/mL) | 91.2 µM (≈ 38.2 µg/mL) | < 3.95 µL/min/mg | > 2.92 h | 438 h | 208 µL/min/mg | 0.0557 h | 35.6 µL/min/mg | 0.649 h | COc1cc2c(cc1OC)[C@H]1C[C@@H](OC(=O)NCC(C)C)[C@H](CC(C)C)CN1CC2 [Example 23, (2R,3R,11bR)-9,10-dimethoxy-3-(2-methylpropyl)-1H,2H,3H,4H,6H,7H,11bH-pyrido[2,1-a]isoquinolin-2-yl N-(2-methylpropyl)carbamate] | 
